Legend:
[1] = in vitro; details: human, Caco-2 cells
[2] = in vitro; details: human
[3] = test system: SARS-CoV-2; assay: microbe, parasite or virus in culture; details: Severe acute respiratory syndrome coronavirus 2, Caco-2, 48 h
[4] = test system: SARS-CoV-2; details: Homo sapiens; Caco-2; 10 uM
[5] = test system: SARS-CoV-2; details: caco-2
[6] = test system: Caco-2; details: human, caco-2, 48 h

Cc1nn(C)c2nc(NNC(=O)Nc3cc(Cl)nc(Cl)c3)cc(C(C)C)c12
CC50 at 48 h [1]: 16.4 µM
selectivity ratio ([2]; Caco-2 cells): 3
IC50 [3]: 5.97 µM

CC(C)(C)c1ccc(/C=C/C(=O)Nc2ccc3c(c2)OCCO3)cc1
CC50 at 48 h [1]: 14.2 µM
selectivity ratio ([2]; Caco-2 cells): 1
IC50 [3]: 15 µM

AURANOFIN
inhibition [4]: 12.8%

C/C(=N\NC(=S)N1CCC1)c1ccccn1
CC50 at 48 h [1]: < 0.02 µM
selectivity ratio ([2]; Caco-2 cells): 1
IC50 [3]: < 0.02 µM

Cc1cccc2c1CC[C@H](CN1CCC(c3c(Cl)cccc3Cl)CC1)C[C@@H]2O
CC50 at 48 h [1]: 3.67 µM
selectivity ratio ([2]; Caco-2 cells): 5
IC50 [3]: 0.77 µM

ACRIFLAVINE HYDROCHLORIDE
inhibition [4]: 69.4%

C=C(c1ccccc1OCc1cccc(Cl)c1)n1ccnc1 [CROCONAZOLE]
CC50 at 48 h [1]: 33 µM
selectivity ratio ([2]; Caco-2 cells): 2
IC50 [3]: 18.9 µM

Cc1cc(Nc2cc(N3CCN(C)CC3)nc(Sc3ccc(NC(=O)C4CC4)cc3)n2)n[nH]1
inhibition [4]: -0.85%

N=C(Nc1ccc(I)cc1)NC1C2CC3CC(C2)CC1C3 (stereo unspecified)
CC50 at 48 h [1]: 11.5 µM
selectivity ratio ([2]; Caco-2 cells): 2
IC50 [3]: 5.96 µM

CCCC[C@@]1(C2CCCC2)Cc2cc(OCCCC(=O)O)c(Cl)c(Cl)c2C1=O
CC50 at 48 h [1]: 24.6 µM
selectivity ratio ([2]; Caco-2 cells): 2
IC50 [3]: 12.8 µM

Cn1cc(-c2ccc3c(c2)CCN3C(=O)Cc2cccc(C(F)(F)F)c2)c2c(N)ncnc21
CC50 at 48 h [1]: 70.4 µM
selectivity ratio ([2]; Caco-2 cells): > 100
IC50 [3]: 0.25 µM

CCC(CC)COC(=O)[C@H](C)N[P@](=O)(OC[C@H]1O[C@@](C#N)(c2ccc3c(N)ncnn23)[C@H](O)[C@@H]1O)Oc1ccccc1
CC50 at 48 h [1]: 2580 µM
selectivity ratio ([2]; caco-2): 3400
IC50 [3]: 0.76 µM

CC(=O)OC[C@]12CCC(C)=C[C@H]1O[C@@H]1[C@H](O)[C@@H](OC(C)=O)[C@@]2(C)[C@@]12CO2
inhibition [4]: 35%

COLISTIMETHATE SODIUM
inhibition [4]: -7.44%

FC(F)(F)Oc1ccc2nc(-c3ccc(OCCOCCOc4ccc(-c5nc6ccc(OC(F)(F)F)cc6[nH]5)nc4)cn3)[nH]c2c1
CC50 at 48 h [1]: 6.58 µM
selectivity ratio ([2]; Caco-2 cells): 35
IC50 [3]: 0.19 µM

CCCCCCCCCCCCCCCCCC[S+](CCC)c1ccccc1C(=O)OCC (stereo unspecified)
CC50 at 48 h [1]: 0.89 µM
selectivity ratio ([2]; Caco-2 cells): 1
IC50 [3]: 0.77 µM

CYANOCOBALAMIN
inhibition [4]: 40.4%

GADOTERIDOL
inhibition [4]: 2.66%

CCOC(=O)c1ncc2[nH]c3ccc(OCc4ccccc4)cc3c2c1COC
CC50 at 48 h [1]: 0.91 µM
selectivity ratio ([2]; Caco-2 cells): 1
IC50 [3]: 1.34 µM

CCCCCCCCCCCCOCCOCCOCCOCCOCCOCCOCCOCCOCCO
CC50 at 48 h [1]: 10.3 µM
IC50 [3]: 0.22 µM

PHENYLMERCURIC ACETATE
inhibition [4]: 9.11%

Nc1nc2c(ncn2[C@@H]2O[C@H](CO)[C@@H](O)[C@H]2O)c(=S)[nH]1 [THIOGUANOSINE]
CC50 at 48 h [1]: 0.63 µM
selectivity ratio ([2]; Caco-2 cells): 1
IC50 [3]: 0.78 µM

TOCOFERSOLAN
inhibition [4]: 95.2%

ESCIN
inhibition [4]: -9.26%

CCS(=O)(=O)N(Cc1cccnc1)c1cccc(-c2ccc(C#N)cc2)c1
CC50 at 48 h [1]: 13.4 µM
selectivity ratio ([2]; Caco-2 cells): 1
IC50 [3]: 17.1 µM

AUROTHIOGLUCOSE
inhibition [4]: 2.42%

CETRIMONIUM BROMIDE
inhibition [4]: 55.1%

COC(=O)C[C@@](O)(CCC(C)(C)O)C(=O)O[C@@H]1C(OC)=C[C@]23CCCN2CCc2cc4c(cc2[C@@H]13)OCO4
CC50 at 48 h [1]: 0.07 µM
IC50 [3]: 19 µM

SODIUM ORTHOVANADATE
inhibition [4]: 1.6%

Nc1nccc(-c2c(-c3ccc(F)cc3)ncn2C2CCCCC2)n1
CC50 at 48 h [1]: 8.24 µM
IC50 [3]: 19.2 µM

NYSTATIN
inhibition [4]: -4.11%

CC1=C(CCC(=O)O)c2cc3nc(cc4[nH]c(cc5[nH]c(cc1n2)c(C)c5C(C)O)c(C)c4C(C)O)C(C)=C3CCC(=O)O (stereo unspecified) [HAEMAPORPHYRIN]
CC50 at 48 h [1]: 160 µM

C/C=C/C[C@@H](C)[C@@H](O)[C@H]1C(=O)N[C@@H](CC)C(=O)N(C)[C@H](C)C(=O)N(CC)[C@@H](C(C)C)C(=O)N[C@@H](C(C)C)C(=O)N(C)[C@@H](CC(C)C)C(=O)N[C@@H](C)C(=O)N[C@H](C)C(=O)N(C)[C@@H](CC(C)C)C(=O)N(C)[C@@H](CC(C)C)C(=O)N(C)[C@@H](C(C)C)C(=O)N1C [ALISPORIVIR]
CC50 at 48 h [1]: > 20 µM
selectivity ratio ([2]; Caco-2 cells): > 6
IC50 [3]: 3.1 µM

THIMEROSAL
IC50 [5]: 1.69 µM
CC50 [6]: 13.5 µM

COc1cc2ncc(-c3ccccc3)nc2cc1OC
CC50 at 48 h [1]: 1.36 µM
IC50 [3]: 0.2 µM

VITAMIN B12
inhibition [4]: -8.31%
